From BindingDB's records for doi:10.1016/S0960-894X(01)80832-5 (1994) come the findings set out here.

Molecules are shown by their SMILES.

The first test addresses Gastrin/cholecystokinin type B receptor (Cavia porcellus). Nature of the test: Inhibitory activity against cholecystokinin-B (CCK-B) receptor in cortex of male hartley guinea pig.
For `Cc1cccc(NC(=O)N[C@@H]2C[C@H](c3ccccc3C)C[C@H](c3ccccc3)N(CC(=O)Nc3ccccc3C)C2=O)c1` [2-[(3R,5S,7R)-2-Oxo-7-phenyl-5-o-tolyl-3-(3-m-tolyl-ureido)-azepan-1-yl]-N-o-tolyl-acetamide], inhibition was half-maximal at 0.071 µM (IC50).

In turn, `Cc1ccc(NC(=O)CN2C(=O)[C@H](NC(=O)Nc3cccc(C)c3)C[C@H](c3ccccc3C)C[C@@H]2c2ccccc2)cc1` [2-[(3R,5S,7R)-2-Oxo-7-phenyl-5-o-tolyl-3-(3-m-tolyl-ureido)-azepan-1-yl]-N-p-tolyl-acetamide] showed an IC50 of 0.04 µM.

`CCc1cccc(NC(=O)N[C@@H]2C[C@H](c3ccccc3C)C[C@H](c3ccccc3)N(CC(=O)NC3(C)CCCCC3)C2=O)c1` [2-{(3R,5S,7R)-3-[3-(3-Ethyl-phenyl)-ureido]-2-oxo-7-phenyl-5-o-tolyl-azepan-1-yl}-N-(1-methyl-cyclohexyl)-acetamide] returned an IC50 of 0.038 µM.

`Cc1cccc(NC(=O)N[C@@H]2C[C@H](c3ccccc3C)C[C@H](c3ccccc3)N(CC(=O)NC3(C)CCCCC3)C2=O)c1` [N-(1-Methyl-cyclohexyl)-2-[(3R,5S,7R)-2-oxo-7-phenyl-5-o-tolyl-3-(3-m-tolyl-ureido)-azepan-1-yl]-acetamide] had an IC50 of 0.134 µM.

The compound `Cc1cccc(NC(=O)N[C@@H]2C[C@H](c3ccccc3C)C[C@H](c3ccccc3)N(CC(=O)NC(C(C)(C)C)C(C)(C)C)C2=O)c1` [N-(1-tert-Butyl-2,2-dimethyl-propyl)-2-[(3R,5S,7R)-2-oxo-7-phenyl-5-o-tolyl-3-(3-m-tolyl-ureido)-azepan-1-yl]-acetamide] returned an IC50 of 0.453 µM.

As for `Cc1cccc(NC(=O)N[C@@H]2C[C@H](c3ccccc3C)C[C@H](c3ccccc3)N(CC(=O)Nc3ccccc3Cl)C2=O)c1` [N-(2-Chloro-phenyl)-2-[(3R,5S,7R)-2-oxo-7-phenyl-5-o-tolyl-3-(3-m-tolyl-ureido)-azepan-1-yl]-acetamide], the IC50 was 0.028 µM.

Compound `Cc1cccc(NC(=O)N[C@@H]2C[C@H](c3ccccc3)C[C@H](c3cccc(C)c3)N(CC(=O)NC(C)(C)C)C2=O)c1` [N-tert-Butyl-2-[(3R,5S,7R)-2-oxo-5-phenyl-7-m-tolyl-3-(3-m-tolyl-ureido)-azepan-1-yl]-acetamide] showed a 50% inhibitory concentration (IC50) of 0.141 µM.

`Cc1ccc([C@H]2C[C@@H](c3ccccc3)C[C@@H](NC(=O)Nc3cccc(C)c3)C(=O)N2CC(=O)NC(C)(C)C)cc1` [N-tert-Butyl-2-[(3R,5S,7R)-2-oxo-5-phenyl-7-p-tolyl-3-(3-m-tolyl-ureido)-azepan-1-yl]-acetamide] came in with an IC50 of 0.56 µM.

Consider `Cc1cccc(NC(=O)N[C@@H]2C[C@H](c3ccccc3C)C[C@H](c3ccccc3)N(CC(=O)NC(C)(C)C)C2=O)c1` [N-tert-Butyl-2-[(3R,5S,7R)-2-oxo-7-phenyl-5-o-tolyl-3-(3-m-tolyl-ureido)-azepan-1-yl]-acetamide], for which the IC50 worked out at 0.0078 µM.

For `Cc1ccc([C@@H]2C[C@H](c3ccccc3)N(CC(=O)NC(C)(C)C)C(=O)[C@H](NC(=O)Nc3cccc(C)c3)C2)cc1` [N-tert-Butyl-2-[(3R,5S,7R)-2-oxo-7-phenyl-5-p-tolyl-3-(3-m-tolyl-ureido)-azepan-1-yl]-acetamide], the IC50 was 0.19 µM.

As to `CCc1ccccc1[C@@H]1C[C@H](c2ccccc2)N(CC(=O)NC(C)(C)C)C(=O)[C@H](NC(=O)Nc2cccc(C)c2)C1` [N-tert-Butyl-2-[(3R,5S,7R)-5-(2-ethyl-phenyl)-2-oxo-7-phenyl-3-(3-m-tolyl-ureido)-azepan-1-yl]-acetamide], half-maximal inhibition (IC50) required 0.025 µM.

For the compound `COc1ccccc1[C@@H]1C[C@H](c2ccccc2)N(CC(=O)NC(C)(C)C)C(=O)[C@H](NC(=O)Nc2cccc(C)c2)C1` [N-tert-Butyl-2-[(3R,5S,7R)-5-(2-methoxy-phenyl)-2-oxo-7-phenyl-3-(3-m-tolyl-ureido)-azepan-1-yl]-acetamide], the IC50 amounted to 0.028 µM.

`Cc1cccc(NC(=O)N[C@@H]2C[C@H](c3ccc(F)cc3)C[C@H](c3ccccc3)N(CC(=O)NC(C)(C)C)C2=O)c1` [N-tert-Butyl-2-[(3R,5S,7R)-5-(4-fluoro-phenyl)-2-oxo-7-phenyl-3-(3-m-tolyl-ureido)-azepan-1-yl]-acetamide]: the IC50 came to 0.065 µM.

`Cc1cccc(NC(=O)N[C@@H]2C[C@H](c3ccccc3)C[C@H](c3cccc(F)c3)N(CC(=O)NC(C)(C)C)C2=O)c1` [N-tert-Butyl-2-[(3R,5S,7R)-7-(3-fluoro-phenyl)-2-oxo-5-phenyl-3-(3-m-tolyl-ureido)-azepan-1-yl]-acetamide] came in with an IC50 of 0.031 µM.

Regarding `Cc1cccc(NC(=O)N[C@@H]2C[C@H](c3ccccc3)C[C@H](c3ccc(F)cc3)N(CC(=O)NC(C)(C)C)C2=O)c1` [N-tert-Butyl-2-[(3R,5S,7R)-7-(4-fluoro-phenyl)-2-oxo-5-phenyl-3-(3-m-tolyl-ureido)-azepan-1-yl]-acetamide], the IC50 turned out to be 0.203 µM.

Consider `Cc1ccccc1[C@@H]1C[C@H](c2ccccc2)N(CC(=O)NC(C)(C)C)C(=O)[C@H](NC(=O)Nc2cccc(C(F)(F)F)c2)C1` [N-tert-Butyl-2-{(3R,5S,7R)-2-oxo-7-phenyl-5-o-tolyl-3-[3-(3-trifluoromethyl-phenyl)-ureido]-azepan-1-yl}-acetamide], for which it took 0.028 µM to reach half-maximal inhibition (IC50).

`Cc1ccccc1[C@@H]1C[C@H](c2ccccc2)N(CC(=O)NC(C)(C)C)C(=O)[C@H](NC(=O)Nc2cccc(F)c2)C1` [N-tert-Butyl-2-{(3R,5S,7R)-3-[3-(3-fluoro-phenyl)-ureido]-2-oxo-7-phenyl-5-o-tolyl-azepan-1-yl}-acetamide] returned an IC50 of 0.036 µM.

Compound `Cc1ccccc1[C@@H]1C[C@H](c2ccccc2)N(CC(=O)NC(C)(C)C)C(=O)[C@H](NC(=O)Nc2cccc([N+](=O)[O-])c2)C1` [N-tert-Butyl-2-{(3R,5S,7R)-3-[3-(3-nitro-phenyl)-ureido]-2-oxo-7-phenyl-5-o-tolyl-azepan-1-yl}-acetamide] showed an IC50 of 0.01 µM.

In the case of `Cc1ccccc1[C@@H]1C[C@H](c2ccccc2)N(CC(=O)NC(C)(C)C)C(=O)[C@H](NC(=O)Nc2ccc(Cl)cc2)C1` [N-tert-Butyl-2-{(3R,5S,7R)-3-[3-(4-chloro-phenyl)-ureido]-2-oxo-7-phenyl-5-o-tolyl-azepan-1-yl}-acetamide], the IC50 was determined as 0.117 µM.

On to `COc1ccc(NC(=O)N[C@@H]2C[C@H](c3ccccc3C)C[C@H](c3ccccc3)N(CC(=O)NC(C)(C)C)C2=O)cc1` [N-tert-Butyl-2-{(3R,5S,7R)-3-[3-(4-methoxy-phenyl)-ureido]-2-oxo-7-phenyl-5-o-tolyl-azepan-1-yl}-acetamide], for which the IC50 came out at 0.087 µM.

A further test has the same target. Described as above. The source holds these as a separate data set.
In the case of `Cc1cccc(NC(=O)N[C@@H]2C[C@H](c3ccccc3C)C[C@H](c3ccccc3)N(CC(=O)NC(C)(C)C)C2=O)c1` [N-tert-Butyl-2-[(3R,5S,7R)-2-oxo-7-phenyl-5-o-tolyl-3-(3-m-tolyl-ureido)-azepan-1-yl]-acetamide], the IC50 was 0.527 µM.

In general, IC50 refers to the midpoint of a concentration-inhibition curve.
